{
  "source": "patent US10472333B2",
  "about": "“P2X4 receptor antagonist” (NIPPON CHEMIPHAR CO., LTD., priority 2013, dated 2019)",
  "key": {"Rat P2X7": {"molecular_target": "T1, Rat P2X7 (Rattus norvegicus, UniProt Q64663)", "T1 construct": "host or cells: cells expressing the receptor", "T1 sequence (Q64663 1-595)": "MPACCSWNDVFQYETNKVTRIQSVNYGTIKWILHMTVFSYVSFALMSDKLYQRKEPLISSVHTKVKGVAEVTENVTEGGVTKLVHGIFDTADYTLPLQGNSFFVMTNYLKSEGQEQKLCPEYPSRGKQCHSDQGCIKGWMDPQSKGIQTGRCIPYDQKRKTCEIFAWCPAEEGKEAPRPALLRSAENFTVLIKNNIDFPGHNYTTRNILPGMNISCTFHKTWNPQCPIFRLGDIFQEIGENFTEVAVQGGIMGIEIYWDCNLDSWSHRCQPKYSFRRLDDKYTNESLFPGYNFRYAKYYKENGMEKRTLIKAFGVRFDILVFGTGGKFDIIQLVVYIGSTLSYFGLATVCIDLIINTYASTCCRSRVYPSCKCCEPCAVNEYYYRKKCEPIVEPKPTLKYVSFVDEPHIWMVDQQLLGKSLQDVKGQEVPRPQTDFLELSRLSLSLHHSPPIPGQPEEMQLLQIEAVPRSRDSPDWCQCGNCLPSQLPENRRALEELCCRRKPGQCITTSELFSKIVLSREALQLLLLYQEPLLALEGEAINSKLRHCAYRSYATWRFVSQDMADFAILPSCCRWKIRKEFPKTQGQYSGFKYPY", "assay": "P2X receptor family selectivity, calcium imaging method using cells expressing the receptor", "type": "cell-based"}, "human P2X4 receptor": {"molecular_target": "T2, human P2X4 receptor (Homo sapiens, UniProt Q99571)", "T2 sequence (Q99571 1-388)": "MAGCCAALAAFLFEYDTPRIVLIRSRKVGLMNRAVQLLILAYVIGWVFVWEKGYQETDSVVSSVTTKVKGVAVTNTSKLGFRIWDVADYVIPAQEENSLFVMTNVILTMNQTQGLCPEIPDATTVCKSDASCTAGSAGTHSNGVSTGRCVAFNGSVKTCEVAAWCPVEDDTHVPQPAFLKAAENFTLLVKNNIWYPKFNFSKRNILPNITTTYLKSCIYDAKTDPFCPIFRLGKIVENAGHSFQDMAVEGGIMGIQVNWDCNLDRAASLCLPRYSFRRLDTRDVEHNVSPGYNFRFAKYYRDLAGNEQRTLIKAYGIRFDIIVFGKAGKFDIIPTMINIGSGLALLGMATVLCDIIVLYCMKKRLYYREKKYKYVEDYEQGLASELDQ", "assay": "P2X4 receptor antagonist activity, ATP-induced intracellular calcium (Fura-2 AM) in 1321N1 cells stably expressing human P2X4 receptor", "type": "cell-based", "conditions": "among human, mouse, and rat"}, "Rat P2X3": {"molecular_target": "T3, Rat P2X3 (Rattus norvegicus, UniProt P49654)", "T3 construct": "host or cells: cells expressing the receptor", "T3 sequence (P49654 1-397)": "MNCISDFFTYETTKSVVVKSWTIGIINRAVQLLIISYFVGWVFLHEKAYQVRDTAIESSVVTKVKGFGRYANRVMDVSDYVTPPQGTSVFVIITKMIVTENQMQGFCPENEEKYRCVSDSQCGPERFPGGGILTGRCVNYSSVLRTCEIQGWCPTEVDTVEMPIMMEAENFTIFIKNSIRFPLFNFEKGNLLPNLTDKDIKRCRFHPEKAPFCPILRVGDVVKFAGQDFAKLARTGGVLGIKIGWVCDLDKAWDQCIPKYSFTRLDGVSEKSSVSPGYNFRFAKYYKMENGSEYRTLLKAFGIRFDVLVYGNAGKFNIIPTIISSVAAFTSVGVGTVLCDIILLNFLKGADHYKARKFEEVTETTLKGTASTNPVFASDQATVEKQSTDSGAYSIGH", "assay": "P2X receptor family selectivity, calcium imaging method using cells expressing the receptor", "type": "cell-based"}, "[1]": {"system": "rat neuropathic pain model (modified Chung model)", "assay": "Analgesic activity, rat neuropathic pain model (modified Chung model), von Frey filament test", "type": "in vivo", "protocol": "The analgesic activity of the compound of the present invention was measured by the following method.\nRat neuropathic pain model (modified Chung model) was prepared according to the method of Kim, S. H., Chung, J. M. et al. (An experimental model for peripheral neuropathy produced by segmental spinal nerve ligation in the rat, Pain, 50, 355-363 (1992)). More specifically; under isoflurane anesthesia, back hair of rats was extensively shaved, the shaved parts were wiped with rubbing alcohol, the rats were fixed in the prone position on a heating pad, and the skins were cut and opened along the dorsal median line on the upper and lower sides of the sacroiliac bone. The left lateral paravertebral muscle was separated in the sacral region, and then the ligament was separated. […]\nThe pain threshold (paw withdrawal threshold (g)) was measured by stimulating the soles of rats with each of seven von Frey filaments (Stoelting Co., TOUCH-TEST SENSORY EVALUATOR) that gave different stimulation strengths, and determining presence or absence of withdrawal response. The 50% threshold was calculated according to the up down method with reference to the method of Chaplan et al. (Chaplan S R, Bach F W, Pogrel J W, Chung J M, Yaksh T L: Quantitative assessment of tactile allodynia in the rat paw, J. Neurosci. Method, 53:55-63 (1994)). […]"}, "Mouse P2X4": {"molecular_target": "T4, Mouse P2X4 (Mus musculus, UniProt Q9JJX6)", "T4 construct": "host or cells: cells expressing the receptor", "T4 sequence (Q9JJX6 1-388)": "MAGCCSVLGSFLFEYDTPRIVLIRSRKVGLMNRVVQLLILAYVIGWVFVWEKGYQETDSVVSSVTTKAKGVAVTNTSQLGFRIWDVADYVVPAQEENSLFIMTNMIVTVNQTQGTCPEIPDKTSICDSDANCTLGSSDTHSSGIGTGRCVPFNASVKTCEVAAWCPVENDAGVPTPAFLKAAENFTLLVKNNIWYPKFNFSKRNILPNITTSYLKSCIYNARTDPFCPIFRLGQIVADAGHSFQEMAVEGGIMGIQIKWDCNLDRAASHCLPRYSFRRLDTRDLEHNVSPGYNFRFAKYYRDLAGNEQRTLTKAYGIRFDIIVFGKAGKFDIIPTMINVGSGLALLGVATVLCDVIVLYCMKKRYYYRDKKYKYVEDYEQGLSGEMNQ", "assay": "P2X receptor family selectivity, calcium imaging method using cells expressing the receptor", "type": "cell-based", "from_the_text": "(§1) The inhibitory activities of the compound against the rat and mouse P2X4 receptors were also confirmed."}, "Rat P2X4": {"molecular_target": "T5, Rat P2X4 (Rattus norvegicus, UniProt P51577)", "T5 construct": "host or cells: cells expressing the receptor", "T5 sequence (P51577 1-388)": "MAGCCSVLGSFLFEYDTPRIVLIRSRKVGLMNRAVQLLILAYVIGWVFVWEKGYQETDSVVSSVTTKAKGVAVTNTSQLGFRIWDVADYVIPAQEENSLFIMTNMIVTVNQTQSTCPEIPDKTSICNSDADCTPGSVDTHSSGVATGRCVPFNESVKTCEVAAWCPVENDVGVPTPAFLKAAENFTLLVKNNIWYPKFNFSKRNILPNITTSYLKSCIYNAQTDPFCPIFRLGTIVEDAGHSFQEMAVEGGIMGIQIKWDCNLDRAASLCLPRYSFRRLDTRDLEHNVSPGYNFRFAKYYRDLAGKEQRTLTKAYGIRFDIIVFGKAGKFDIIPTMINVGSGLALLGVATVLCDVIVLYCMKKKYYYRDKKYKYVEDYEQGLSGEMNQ", "assay": "P2X receptor family selectivity, calcium imaging method using cells expressing the receptor", "type": "cell-based", "from_the_text": "as §1"}, "Human P2X7": {"molecular_target": "T6, Human P2X7 (Homo sapiens, UniProt Q99572)", "T6 construct": "host or cells: cells expressing the receptor", "T6 sequence (Q99572 1-595)": "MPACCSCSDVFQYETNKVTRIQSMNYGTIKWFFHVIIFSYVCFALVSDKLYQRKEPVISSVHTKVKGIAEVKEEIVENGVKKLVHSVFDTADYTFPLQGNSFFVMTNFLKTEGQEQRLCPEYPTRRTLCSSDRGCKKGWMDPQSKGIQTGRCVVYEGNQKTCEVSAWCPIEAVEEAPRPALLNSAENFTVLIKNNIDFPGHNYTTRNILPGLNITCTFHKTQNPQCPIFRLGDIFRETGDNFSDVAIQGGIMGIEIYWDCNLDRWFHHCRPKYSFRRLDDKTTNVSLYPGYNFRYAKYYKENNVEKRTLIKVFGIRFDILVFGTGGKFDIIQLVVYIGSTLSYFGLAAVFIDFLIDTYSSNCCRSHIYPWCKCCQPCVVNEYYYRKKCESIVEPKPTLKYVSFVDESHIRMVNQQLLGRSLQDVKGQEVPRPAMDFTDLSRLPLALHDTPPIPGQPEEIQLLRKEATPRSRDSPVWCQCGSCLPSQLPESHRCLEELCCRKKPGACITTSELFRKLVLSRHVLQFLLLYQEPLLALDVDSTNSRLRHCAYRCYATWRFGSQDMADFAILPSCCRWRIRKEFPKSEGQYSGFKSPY", "assay": "P2X receptor family selectivity, calcium imaging method using cells expressing the receptor", "type": "cell-based"}},
  "data": [
    {"molecule": "CN(C)c1ncccc1C(=O)Nc1ccc(C2=NCC(=O)Nc3c2ccc2ccccc32)cc1.Cl.Cl", "note": "[Example 15, 2-(Dimethylamino)-N-[4-(2-oxo-2,3-dihydro-1H-naphtho[1,2-e][1,4]diazepin-5-yl)phenyl]nicotinamide dihydrochloride]", "values": [
      {"measurement": "IC50", "setting": "Rat P2X7", "result": "> 30", "unit": "µM"},
      {"measurement": "Species-specific difference of the P2X4 receptor inhibitory activity", "setting": "human P2X4 receptor", "result": "not observed"},
      {"measurement": "IC50", "setting": "Rat P2X3", "result": 6.8, "unit": "µM"},
      {"measurement": "pain threshold of the affected limb (von Frey filament test)", "setting": "[1]; rat modified Chung model, 30 mg/kg orally twice a day (60 mg/kg/day) for 14 days from day 9 after operation, measured 3 hours after administration, vs. vehicle group", "result": "increased"},
      {"measurement": "analgesic activity", "setting": "[1]; rat neuropathic pain model (modified Chung model)", "result": "superior analgesic activity"},
      {"measurement": "IC50", "setting": "Mouse P2X4", "result": 0.52, "unit": "µM"},
      {"measurement": "IC50", "setting": "Rat P2X4", "result": 1.3, "unit": "µM"},
      {"measurement": "IC50", "setting": "Human P2X7", "result": "> 30", "unit": "µM"}
    ]}
  ]
}
